Target: T1, human KSP motor domain (KSP(367H)) (Homo sapiens, UniProt P52732)
T1 construct: were used to amplify the motor domain and the neck linker region; made in house; host or cells: E. coli BL21 (DE3), vector pRSETa
T1 sequence (P52732 18-359 limits assumed): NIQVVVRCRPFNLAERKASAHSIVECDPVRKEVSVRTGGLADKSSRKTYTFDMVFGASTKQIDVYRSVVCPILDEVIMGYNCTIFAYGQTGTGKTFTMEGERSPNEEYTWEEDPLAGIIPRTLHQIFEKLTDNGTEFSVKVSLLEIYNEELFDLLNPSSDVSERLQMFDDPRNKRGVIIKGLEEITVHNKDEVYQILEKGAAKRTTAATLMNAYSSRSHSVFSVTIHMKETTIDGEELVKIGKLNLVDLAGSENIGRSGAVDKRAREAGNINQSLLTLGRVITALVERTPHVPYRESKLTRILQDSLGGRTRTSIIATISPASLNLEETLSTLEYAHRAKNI
Assay: Kinesin ATPhase In Vitro Assay
Assay type: biochemical
Conditions: kinesin motor domain with microtubules, 1 mM ATP, 23° C.; free phosphate by quinaldine red/ammonium molybdate, 540 nm
Source text: I. Kinesin ATPhase In Vitro Assay
Cloning and Expression of Human Poly-Histidine Tagged KSP Motor Domain (KSP(367H))
Plasmids for the expression of the human KSP motor domain construct were cloned by PCR using a pBluescript full length human KSP construct (Blangy et al., Cell, vol. 83, pp1159-1169, 1995) as a template. The N-terminal primer 5′-[…] (SEQ. ID. NO.: 1) and the C-terminal primer 5′-[…] […] (SEQ. ID. NO.: 2) were used to amplify the motor domain and the neck linker region. The PCR products were digested with AseI and XhoI, ligated into the NdeIlXhoI digestion product of pRSETa (Invitrogen) and transformed into E. coli BL21 (DE3).
Cells were grown at 37 IC to an OD600 of 0.5. […]
The kinesin motor domain is incubated with microtubules, 1 mM ATP (1:1 MgCl2: Na-ATP), and compound at 23° C. in buffer containing 80 mM K-HEPES (pH 7.0), 1 mM EGTA, 1 mM DTT, 1 mM MgCl2, and 50 mM KCl. […] Free phosphate from the ATP hydrolysis reaction is measured via a quinaldine red/ammonium molybdate assay by adding 150 μl of quench C buffer containing a 2:1 ratio of quench A:quench B. Quench A contains 0.1 mg/mil quinaldine red and 0.14% polyvinyl alcohol; quench B contains 12.3 mM ammonium molybdate tetrahydrate in 1.15 M sulfuric acid. The reaction is incubated for 10 minutes at 23° C., and the absorbance of the phospho-molybdate complex is measured at 540 nm.

| IC50 [µM] | Structure (SMILES) |
| --- | --- |
| ≤ 15 | CC(C)[C@H](N)C(=O)N1CCC(c2cc(F)ccc2F)=CC1c1cccc(O)c1 (some centres unmarked) [Compound 2-2] |
| ≤ 15 | CNCC(C)CN(C)C(=O)N1CCC(c2cc(F)ccc2F)=CC1c1cccc(O)c1 (centres unmarked) [Compound 3-3, 4-(2,5-difluorophenyl)-6-(3-hydroxyphenyl)-N-methyl-N-[2-methyl-3-(methylamino)propyl]-3,6-dihydropyridine-1(2H)-carboxamide] |

Reference: US7622489B2, “Mitotic kinesin inhibitors” (Merck & Co., Inc., priority 2002, dated 2009)
